Test results: ChEMBL document CHEMBL4732258, “Pyxinol bearing amino acid residues: Easily achievable and promising modulators of P-glycoprotein-mediated multidrug resistance” (Eur J Med Chem, 2021)
The source made the active and inactive calls. The calls are words filed in the database; no cut-off is given here.

How the values were obtained:
[1] = Antitumor activity against human KBV cells xenografted model assessed as reduction in tumor weight at 10 mg/kg in presence of 30 mg/kg paclitaxel; assay type: functional
[2] = Cytotoxicity against human KBV cells assessed as cell viability at 10 uM incubated for 72 hrs by MTT assay; assay type: cell-based; details: read-out: Activity
[3] = tested on: KBV; test: Reversal of Pgp-mediated paclitaxel resistance in human KBV cells assessed as cell viability at 10 uM in presence of paclitaxel incubated for 72 hrs by MTT assay; assay type: cell-based
[4] = tested on: KBV; test: Reversal of Pgp-mediated paclitaxel resistance in human KBV cells assessed as cell viability at 5 uM in presence of paclitaxel incubated for 72 hrs by MTT assay; assay type: cell-based
[5] = tested on: KBV; test: Reversal of Pgp-mediated multidrug resistance in human KBV cells assessed as fold change in paclitaxel IC50 at 5 uM after 72 hrs in presence of paclitaxel by MTT assay relative to control; assay type: cell-based
[6] = tested on: KBV; test: Reversal of Pgp-mediated multidrug resistance in human KBV cells assessed as fold change in paclitaxel IC50 at 10 uM after 72 hrs in presence of paclitaxel by MTT assay relative to control; assay type: cell-based
[7] = tested on: KBV; test: Reversal of Pgp-mediated multidrug resistance in human KBV cells assessed as fold change in vincristine IC50 at 5 uM after 72 hrs in presence of vincristine by MTT assay relative to control; assay type: cell-based
[8] = tested on: KBV; test: Reversal of Pgp-mediated multidrug resistance in human KBV cells assessed as fold change in vincristine IC50 at 10 uM after 72 hrs in presence of vincristine by MTT assay relative to control; assay type: cell-based
[9] = tested on: KBV; test: Reversal of P-gp mediated drug efflux in human KBV cells assessed as increase in intracellular Rhodamine123 accumulation preincubated for 2 hrs followed by Rh123 addition measured after 0.5 hr by flow cytometry analysis; assay type: cell-based; details: filed as modulator, dose 2-10 µM, time 2.5 hrs
[10] = target: T1, Broad substrate specificity ATP-binding cassette transporter ABCG2 (Homo sapiens, UniProt Q9UNQ0); test: Reversal of BCRP-mediated multidrug resistance in human KBV cells assessed as fold change in mitoxantrone IC50 at 5 uM after 72 hrs in presence of mitoxantrone by MTT assay; assay type: cell-based
T1 sequence (Q9UNQ0 whole entry): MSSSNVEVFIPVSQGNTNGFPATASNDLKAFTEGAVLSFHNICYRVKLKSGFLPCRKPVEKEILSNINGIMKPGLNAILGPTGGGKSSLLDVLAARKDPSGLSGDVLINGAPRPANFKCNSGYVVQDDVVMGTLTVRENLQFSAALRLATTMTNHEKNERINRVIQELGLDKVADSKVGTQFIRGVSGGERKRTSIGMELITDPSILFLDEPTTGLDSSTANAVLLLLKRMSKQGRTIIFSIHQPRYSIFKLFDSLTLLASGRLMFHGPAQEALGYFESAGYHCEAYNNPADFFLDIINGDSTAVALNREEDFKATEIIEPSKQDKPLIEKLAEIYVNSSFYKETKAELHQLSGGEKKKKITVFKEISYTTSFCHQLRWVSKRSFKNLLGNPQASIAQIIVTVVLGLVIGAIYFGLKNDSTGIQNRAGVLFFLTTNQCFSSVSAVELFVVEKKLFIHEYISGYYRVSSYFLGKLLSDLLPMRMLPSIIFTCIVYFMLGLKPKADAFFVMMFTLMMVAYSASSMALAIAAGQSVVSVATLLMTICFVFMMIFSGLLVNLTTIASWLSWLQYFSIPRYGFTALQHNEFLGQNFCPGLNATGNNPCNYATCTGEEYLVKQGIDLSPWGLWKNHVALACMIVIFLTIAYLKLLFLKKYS

[11] = target: T1, Broad substrate specificity ATP-binding cassette transporter ABCG2; test: Reversal of BCRP-mediated multidrug resistance in human KBV cells assessed as fold change in mitoxantrone IC50 at 10 uM after 72 hrs in presence of mitoxantrone by MTT assay; assay type: cell-based
[12] = species on record: Homo sapiens; test: Modulation of Pgp-ATPase activity (unknown origin) assessed as fold increase in ATP consumption at 0.5 mM preincubated for 5 mins followed by Mg-ATP addition and measured after 45 mins by microplate reader analysis; details: filed as modulator, time 50.0 min
[13] = tested on: KBV; test: Effect on Pgp protein expression in human KBV cells at 5 to 10 uM after 24 hrs by Western blot analysis; assay type: functional, cell-based; details: dose 5-10 µM
[14] = Induction of cell cycle arrest in human KBV cells assessed as accumulation at sub-G1 phase at 10 uM after 24 hrs by PI/RNaseA staining based flow cytometric analysis (reference value: 4.26 +/- 0.35%); assay type: functional
[15] = Induction of cell cycle arrest in human KBV cells assessed as accumulation at G1/G0 phase at 10 uM after 24 hrs by PI/RNaseA staining based flow cytometric analysis (reference value: 49.09 +/- 0.35%); assay type: functional
[16] = Induction of cell cycle arrest in human KBV cells assessed as accumulation at S phase at 10 uM after 24 hrs by PI/RNaseA staining based flow cytometric analysis (reference value: 11.32 +/- 0.04%); assay type: functional
[17] = Induction of cell cycle arrest in human KBV cells assessed as accumulation at G2/M phase at 10 uM after 24 hrs by PI/RNaseA staining based flow cytometric analysis (reference value: 33.81 +/- 0.57%); assay type: functional
[18] = Induction of cell cycle arrest in human KBV cells assessed as accumulation at sub-G1 phase at 5 uM after 24 hrs in presence of 0.1 uM paclitaxel by PI/RNaseA staining based flow cytometric analysis (reference value: 5.83 +/- 0.31%); assay type: functional
[19] = Induction of cell cycle arrest in human KBV cells assessed as accumulation at G1/G0 phase at 5 uM after 24 hrs in presence of 0.1 uM paclitaxel by PI/RNaseA staining based flow cytometric analysis (reference value: 50.74 +/- 0.07%); assay type: functional
[20] = Induction of cell cycle arrest in human KBV cells assessed as accumulation at S phase at 5 uM after 24 hrs in presence of 0.1 uM paclitaxel by PI/RNaseA staining based flow cytometric analysis (reference value: 13.06 +/- 0.39%); assay type: functional
[21] = Induction of cell cycle arrest in human KBV cells assessed as accumulation at G2/M phase at 5 uM after 24 hrs in presence of 0.1 uM paclitaxel by PI/RNaseA staining based flow cytometric analysis (reference value: 28.03 +/- 0.95%); assay type: functional
[22] = Induction of cell cycle arrest in human KBV cells assessed as accumulation at sub-G1 phase at 10 uM after 24 hrs in presence of 0.1 uM paclitaxel by PI/RNaseA staining based flow cytometric analysis (reference value: 5.83 +/- 0.31%); assay type: functional
[23] = Induction of cell cycle arrest in human KBV cells assessed as accumulation at G1/G0 phase at 10 uM after 24 hrs in presence of 0.1 uM paclitaxel by PI/RNaseA staining based flow cytometric analysis (reference value: 50.74 +/- 0.07%); assay type: functional
[24] = Induction of cell cycle arrest in human KBV cells assessed as accumulation at S phase at 10 uM after 24 hrs in presence of 0.1 uM paclitaxel by PI/RNaseA staining based flow cytometric analysis (reference value: 13.06 +/- 0.39%); assay type: functional
[25] = Induction of cell cycle arrest in human KBV cells assessed as accumulation at G2/M phase at 10 uM after 24 hrs in presence of 0.1 uM paclitaxel by PI/RNaseA staining based flow cytometric analysis (reference value: 28.03 +/- 0.95%); assay type: functional

Structure (SMILES)	viability at 72 h, 10 µM [2] [%]	Activity ([3]; filed as modulator) [%]	Activity ([4]; filed as modulator) [%]	fold change (FC) [5]	fold change (FC) [6]	also measured
CC(C)(C)OC(=O)NCCCCCC(=O)N[C@H]1CC[C@]2(C)[C@H]3C[C@@H](O)[C@@H]4[C@@H]([C@]5(C)CC[C@H](C(C)(C)O)O5)CC[C@@]4(C)[C@]3(C)CC[C@H]2C1(C)C	–	–	–	–	–	inhibition in vivo at 10 mg/kg [1]: 53.7%
CSCC[C@H](N)C(=O)O[C@H]1CC[C@]2(C)[C@H]3C[C@@H](O)[C@@H]4[C@@H]([C@]5(C)CC[C@H](C(C)(C)O)O5)CC[C@@]4(C)[C@]3(C)CC[C@H]2C1(C)C	90	23	26	17	34	–
CSCC[C@H](NC(=O)OC(C)(C)C)C(=O)O[C@H]1CC[C@]2(C)[C@H]3C[C@@H](O)[C@@H]4[C@@H]([C@]5(C)CC[C@H](C(C)(C)O)O5)CC[C@@]4(C)[C@]3(C)CC[C@H]2C1(C)C	120	21	26	25	59	fold change (FC) [7]: 3; fold change (FC) [8]: 8; Activity [9]: Dose-dependent effect; fold change (FC) [10]: 1.4; fold change (FC) [11]: 1.6; fold change (FC) [12]: 6; Activity [13]: inactive; Activity [14]: 3.31%; Activity [15]: 42.81%; Activity [16]: 13.67%; Activity [17]: 38.79%; Activity [18]: 19.8%; Activity [19]: 14%; Activity [20]: 12.94%; Activity [21]: 51.66%; Activity [22]: 22.66%; Activity [23]: 13.75%; Activity [24]: 11.1%; Activity [25]: 51.06%
COc1ccc(CCN(C)CCCC(C#N)(c2ccc(OC)c(OC)c2)C(C)C)cc1OC (stereo not drawn)	–	28	–	–	40	fold change (FC) [8]: 16; fold change (FC) [11]: 1; fold change (FC) [12]: 5.6; Activity [14]: 4.69%; Activity [15]: 51.35%; Activity [16]: 11.44%; Activity [17]: 31.36%; Activity [22]: 18.47%; Activity [23]: 11.1%; Activity [24]: 11.57%; Activity [25]: 57.42%
CSCC[C@H](NC(=O)OC(C)(C)C)C(=O)O[C@H]1CC[C@]2(C)[C@H]3C[C@@H](O)[C@@H]4[C@@H]([C@]5(C)CC[C@@H](C(C)(C)O)O5)CC[C@@]4(C)[C@]3(C)CC[C@H]2C1(C)C	88	16	19	18	51	fold change (FC) [7]: 5; fold change (FC) [8]: 14; fold change (FC) [10]: 0.8; fold change (FC) [11]: 1.2
CSCC[C@H](N)C(=O)O[C@H]1CC[C@]2(C)[C@H]3C[C@@H](O)[C@@H]4[C@@H]([C@]5(C)CC[C@@H](C(C)(C)O)O5)CC[C@@]4(C)[C@]3(C)CC[C@H]2C1(C)C	100	31	–	0.4	6	Activity [4]: 56%
CC(C)(O)[C@H]1CC[C@@](C)([C@H]2CC[C@]3(C)[C@@H]2[C@H](O)C[C@@H]2[C@@]4(C)CC[C@H](OC(=O)CN)C(C)(C)[C@@H]4CC[C@]23C)O1	106	28	43	–	–	–
CC(C)(O)[C@@H]1CC[C@@](C)([C@H]2CC[C@]3(C)[C@@H]2[C@H](O)C[C@@H]2[C@@]4(C)CC[C@H](OC(=O)[C@@H](N)CC(=O)O)C(C)(C)[C@@H]4CC[C@]23C)O1	106	–	–	–	–	Activity [3]: 92%; Activity [4]: 110%
CC(C)(C)OC(=O)N[C@@H](Cc1ccccc1)C(=O)O[C@H]1CC[C@]2(C)[C@H]3C[C@@H](O)[C@@H]4[C@@H]([C@]5(C)CC[C@@H](C(C)(C)O)O5)CC[C@@]4(C)[C@]3(C)CC[C@H]2C1(C)C	17	16	17	–	–	–
CC(C)[C@H](N)C(=O)O[C@H]1CC[C@]2(C)[C@H]3C[C@@H](O)[C@@H]4[C@@H]([C@]5(C)CC[C@@H](C(C)(C)O)O5)CC[C@@]4(C)[C@]3(C)CC[C@H]2C1(C)C	96	25	49	–	–	–
CC(C)(O)[C@H]1CC[C@@](C)([C@H]2CC[C@]3(C)[C@@H]2[C@H](O)C[C@@H]2[C@@]4(C)CC[C@H](OC(=O)[C@@H](N)Cc5c[nH]c6ccccc56)C(C)(C)[C@@H]4CC[C@]23C)O1	81	30	32	–	–	–
C[C@@H](OCc1ccccc1)[C@H](N)C(=O)O[C@H]1CC[C@]2(C)[C@H]3C[C@@H](O)[C@@H]4[C@@H]([C@]5(C)CC[C@@H](C(C)(C)O)O5)CC[C@@]4(C)[C@]3(C)CC[C@H]2C1(C)C	102	30	46	–	–	–
CC(C)(C)OC(=O)C[C@H](NC(=O)OC(C)(C)C)C(=O)O[C@H]1CC[C@]2(C)[C@H]3C[C@@H](O)[C@@H]4[C@@H]([C@]5(C)CC[C@H](C(C)(C)O)O5)CC[C@@]4(C)[C@]3(C)CC[C@H]2C1(C)C	85	20	32	–	–	–
